Data: ChEMBL document CHEMBL1144346, “Synthesis, DNA affinity, and antiprotozoal activity of fused ring dicationic compounds and their prodrugs” (J Med Chem, 2005)

Legend:
[1] = test system: Mus musculus; assay: In vivo antitrypanosomal activity (100 mg/kg for 4 days, p.o.) measured as cured mice infected with Trypanosoma brucei rhodesiense strain STIB900; 0 cured out of 4
[2] = test system: Trypanosoma brucei rhodesiense; assay: In vitro antiprotozoal activity against Trypanosoma brucei rhodesiense strain STIB900; format: functional, organism-based
[3] = test system: Plasmodium falciparum; assay: In vitro antiprotozoal activity for Plasmodium falciparum K1; format: functional, organism-based
[4] = test system: L6; assay: In vitro cytotoxicity evaluated using cultured L6 rat myoblast cells; format: functional; details: read-out: TD50 (the source's name)
[5] = test system: Mus musculus; assay: In vivo antitrypanosomal activity (10 mg/kg for 4 days, i.p.) measured as survival days of mice infected with Trypanosoma brucei rhodesiense strain STIB900; format: functional
[6] = test system: Mus musculus; assay: In vivo antitrypanosomal activity (10 mg/kg for 4 days, i.p.) measured as cured mice infected with Trypanosoma brucei rhodesiense strain STIB900; 2 cured out of 4; format: functional
[7] = test system: Nucleic Acid; assay: poly(d(A-T)2) binding affinity is measured as change in DNA melting temperature; format: nucleic-acid assay
[8] = test system: Mus musculus; assay: In vivo antitrypanosomal activity (25 mg/kg for 4 days, p.o.) measured as cured mice infected with Trypanosoma brucei rhodesiense strain STIB900; 2 cured out of 4
[9] = test system: Mus musculus; assay: In vivo antitrypanosomal activity (100 mg/kg for 4 days, p.o.) measured as cured mice infected with Trypanosoma brucei rhodesiense strain STIB900; 0 cured out of 4; remark: listed apart in the source
[10] = test system: Mus musculus; assay: In vivo antitrypanosomal activity (100 mg/kg for 4 days, p.o.) measured as survival days of mice infected with Trypanosoma brucei rhodesiense strain STIB900
[11] = test system: Mus musculus; assay: In vivo antitrypanosomal activity (20 mg/kg for 4 days, i.p.) measured as cured mice infected with Trypanosoma brucei rhodesiense strain STIB900; 3 cured out of 4; format: functional
[12] = test system: Mus musculus; assay: In vivo antitrypanosomal activity (20 mg/kg for 4 days, i.p.) measured as survival days of mice infected with Trypanosoma brucei rhodesiense strain STIB900; format: functional
[13] = test system: Mus musculus; assay: In vivo antitrypanosomal activity (20 mg/kg for 4 days, i.p.) measured as cured mice infected with Trypanosoma brucei rhodesiense strain STIB900; 0 cured out of 4; format: functional

Row | SMILES | IC50 [2] [µM] | IC50 [3] [µM] | CC50 [4] [µM] | delta Tm [7] [°C] | further results
1 | CCOC(=O)N/C(=N/C(C)C)Nc1ccc2c(c1)Cc1cc(N/C(=N\C(C)C)NC(=O)OCC)ccc1-2 | 2.5 | 6.3 | 94.2 |  | Cures [1]: 0
2 | N=C(N)Nc1ccc2c(c1)C(=O)c1cc(NC(=N)N)ccc1-2 | 0.0073 | 0.268 | 41.5 | 6.1 | Survival [5]: >50.75 days; Cures [6]: 2
3 | CC/N=C(/NC(=O)OCC)Nc1ccc2c(c1)Cc1cc(/N=C(/NCC)NC(=O)OCC)ccc1-2 | 8 | 4.1 | 174 |  | 
4 | CCOC(=O)N/C(=N/C)Nc1ccc2c(c1)Cc1cc(N/C(=N\C)NC(=O)OCC)ccc1-2 | 2.9 | 10.3 | 95.6 |  | Cures [8]: 2
5 | CCOC(=O)NC(=N)Nc1ccc2c(c1)C(=O)c1cc(NC(=N)NC(=O)OCC)ccc1-2 | 12.9 | 3.2 | > 200 |  | Cures [9]: 0
6 | CC/N=C(/N)Nc1ccc2c(c1)Cc1cc(N/C(N)=N\CC)ccc1-2 | 0.0169 | 0.0133 | 39.2 | 10 | 
7 | N=C(Nc1ccc2c(c1)Cc1cc(NC(=N)c3ccccn3)ccc1-2)c1ccccn1 | 0.894 | 1.2 | 98.7 | 15.2 | 
8 | CC(C)CONC(=N)Nc1ccc2c(c1)Cc1cc(NC(=N)NOCC(C)C)ccc1-2 | 21.2 | 0.351 | 68.4 |  | Cures [1]: 0; Survival [10]: 6.75 days
9 | C/N=C(/N)Nc1ccc2c(c1)Cc1cc(N/C(N)=N\C)ccc1-2 | 0.0126 | 0.01 | 65.2 | 10.1 | Cures [11]: 3; Survival [12]: >52 days
10 | CONC(=N)Nc1ccc2c(c1)Cc1cc(NC(=N)NOC)ccc1-2 | 47.5 | 3 | 137 |  | Cures [1]: 0; Survival [10]: 8 days
11 | CCOC(=O)NC(=N)Nc1ccc2c(c1)Cc1cc(NC(=N)NC(=O)OCC)ccc1-2 | 0.814 | 3.7 | > 201 |  | Cures [1]: 0; Survival [10]: 18.75 days
12 | N=C(N)Nc1ccc2c(c1)Cc1cc(NC(=N)N)ccc1-2 |  |  | 4.7 | 13.6 | Survival [12]: 6 days; Cures [13]: 0
13 | CC(C)/N=C(/N)Nc1ccc2c(c1)Cc1cc(N/C(N)=N\C(C)C)ccc1-2 | 0.0404 | 0.0357 | 85.2 | 9.3 | 
14 | N=C(N)Nc1ccc2c(c1)C(=O)c1cc(NC(=N)N)ccc1C2=O | 0.128 | 30.2 | 35.3 | 7.2 | 
15 | N=C(Nc1ccc2c(c1)Cc1cc(NC(=N)c3ccccc3)ccc1-2)c1ccccc1 | 0.292 | 0.481 | 1.9 | 22 | 
16 | N=C(N)c1ccc(-c2ccc(-c3ccc(C(=N)N)cc3)o2)cc1 [FURAMIDINE] |  |  | 6.4 | 25 | Survival [12]: 52.5 days; Cures [13]: 0
17 | N=C(N)c1ccc(OCCCCCOc2ccc(C(=N)N)cc2)cc1 [PENTAMIDINE] | 0.0023 | 0.0346 | 1.5 | 12.6 | Survival [12]: 40.8 days; Cures [13]: 0
